Results from patent US9840494B2, “Quinazoline derivative” (Tianjin Hemay Oncology Pharmaceutical Co., Ltd., priority 2013, dated 2017).

Experiments:
[1] = tested on: human head and neck cancer cell lines Fadu; assay: In vitro inhibitory action on human tumor cells, Fadu (MTT); assay type: cell-based; settings: 72 h, MTT assay, usually 3 days
Method: Human epidermoid carcinoma cell line A431, human non-small cell lung cancer cell line HCC827, head and neck cancer cell lines Fadu and human pancreatic cancer cell line AsPC-1 were purchased from Cell Bank, Chinese Academy of Sciences.
3.2 Cell culture method: cells were cultured in the complete medium at 37° C. under 5% CO2 and saturated humidity until logarithmic growth phase, i.e., adherent cells substantially approach complete confluence, and then collected for subsequent assay. For the adherent cells, they were firstly digested with trypsin/EDTA to detach.
3.3 A certain number of cells were seeded into 96-well cell culture plates (hereinafter referred to as 96-well plates). […] Finally, total cellular protein in the wells was determined using SRB assay, or cell viability was determined with MTT assay.
3.3.1 The cell seeding concentration was determined by cell growth curve assay which completely simulates compound inhibition assay process. […]
3.4 Dilution and addition of compounds: the concentration of DMSO that can be tolerant by the cells was determined by DMSO tolerance assay, and thereby selecting the dilution and addition methods of compounds. The effects of different concentrations of DMSO on cell growth were determined by DMSO tolerance assay. […] Two methods are finally determined as follows. […]

[2] = MTD assay, single administration to mice; assay type: in vivo; settings: ICR male mice, tail intravenous administration, 14 days
From the text: MTD Assay for a Single […] to Mice
1. Experimental Animals: ICR male mice, weighing 19-22 g, were purchased from Beijing Vital River Laboratory Animal Technology Co., Ltd., Animal License No. SCXK (Beijing) 2007-0001
2. Experimental Scheme: 21 mice were divided into nine groups: groups I, IV and VI referred to one mouse per group, groups II, V and IIX referred to four mice per group, and group III, VI and IX referred to two mice per group. Compound 4, compound 2 and compound 12 were dissolved in water for injection. Groups I-III were subjected to tail intravenous administration of compound 4 (N-[4-(3-chloro-4-fluorophenylamino)-7-(2-methoxyethoxy)quinazolin-6yl]-2-[piperidin-4-ylidene]acetamide dihydrochloride) at doses of 100 mg/kg, 150 mg/kg, and 200 mg/kg, respectively. The animal response and the weight change were observed after administration, and these animals were sacrificed after 14 days for anatomical observation. Groups IV-VI were subjected to tail intravenous administration of compound 2 (N-[4-(3-chloro-4-fluorophenylamino)-7-(2-methoxyethoxy)quinazolin-6yl]-2-[1-(2-methoxyethyl)piperidin-4-ylidene]acetamide dihydrochloride) at doses of 100 mg/kg, 150 mg/kg, and 200 mg/kg, respectively. The animal response and the weight change were observed after administration, and these animals were sacrificed after 14 days for anatomical observation. Groups VII-IX were subjected to tail intravenous administration of compound 12 (N-[4-(3-ethynylphenylamino-7-(2-ethoxy)quinazolin-6yl]-2-[1-methylpiperidin-4-ylidene]acetamide dihydrochloride) at doses of 100 mg/kg, 150 mg/kg, and 200 mg/kg, respectively. The animal response and the weight change were observed after administration, and these animals were sacrificed after 14 days for anatomical observation.

Row | SMILES | IC50 [1] [nM] | Mortality ([2]; 100 mg/kg, 1 animal) [%] | Number of Deaths ([2]; 100 mg/kg, 1 animal) | Mortality ([2]; 150 mg/kg, 4 animals) [%] | Number of Deaths ([2]; 150 mg/kg, 4 animals) | Mortality ([2]; 200 mg/kg, 2 animals) [%] | Number of Deaths ([2]; 200 mg/kg, 2 animals)
1 | COCCOc1cc2ncnc(Nc3ccc(F)c(Cl)c3)c2cc1NC(=O)C=C1CCN(CCOC)CC1.CS(=O)(=O)O [Compound 3, N-[4-(3-chloro-4-fluorophenylamino)-7-(2-methoxyethoxy)quinazolin-6-yl]-2-[1-(2-methoxyethyl)piperidin-4-ylidene]acetamide dimethylsulfonate] | 132 |  |  |  |  |  | 
2 | COCCOc1cc2ncnc(Nc3ccc(F)c(Cl)c3)c2cc1NC(=O)C=C1CCN(CCOC)CC1.Cl.Cl [Compound 2, N-[4-(3-chloro-4-fluorophenylamino)-7-(2-methoxyethoxy)quinazolin-6yl]-2-[1-(2-methoxyethyl)piperidin-4-ylidene]acetamide dihydrochloride] |  | 0 | 0 | 0 | 0 | 0 | 0
